The text below walks through data of ChEMBL document CHEMBL1151219, “Bioactive diterpenoids, a new jatrophane and two ent-abietanes, and other constituents from Euphorbia pubescens” (2004).

In test [1] the test system is NCI-H460. The test is described as follows: Growth inhibition of human NCI-H460 cells after 48 hrs by SRB assay. The test is classed as functional. The following applies: NCI-H460, 48 h.
Test [2] deals with MCF7. The test is described as follows: Growth inhibition of human MCF7 cells after 48 hrs by SRB assay. The test is classed as functional. The following applies: MCF7, 48 h.
Test [3] has as its system SF-268. The test is described as follows: Growth inhibition of human SF268 cells after 48 hrs by SRB assay. The following applies: SF-268, 48 h. The test is classed as functional.
Test [4] concerns SF-268. The test is described as follows: Growth inhibition of human SF268 cells at 100 uM after 48 hrs by SRB assay. Type of test: functional, cell-based.
The subject of test [5] is Staphylococcus aureus. The test is described as follows: Antibacterial activity against Staphylococcus aureus ATCC 6538P at 2.5 ug/spot after 24 hrs by bioautographic agar overlay method. Type of test: functional, organism-based.
Test [6] deals with Escherichia coli. The test is described as follows: Antibacterial activity against Escherichia coli ATCC 25922 at 40 ug/spot after 24 hrs by bioautographic agar overlay method. The test is classed as functional, organism-based.
Test [7] has as its system Pseudomonas aeruginosa. The test is described as follows: Antibacterial activity against Pseudomonas aeruginosa ATCC 27853 at 40 ug/spot after 24 hrs by bioautographic agar overlay method. The test is classed as functional, organism-based.

Calls of active or inactive are those of the source. The rule behind the calls is not given here.

For the molecule `C=C1C[C@H](OC(C)=O)C(=O)C(C)(C)/C=C/[C@@H](C)C(=O)[C@@]2(OC(C)=O)C[C@H](C)[C@H](OC(=O)c3ccccc3)[C@]2(O)[C@H]1OC(C)=O` [PUBESCENOL], the GI50 in test [1] amounted to 55.6 µM; in test [2] it was 69 µM; in test [3], 75.2 µM.
Turning to `CC1=C2C=C3CC[C@@H]4C(C)(C)[C@@H](O)CC[C@@]4(C)[C@@H]3C[C@H]2OC1=O` [HELIOSCOPINOLIDE B], the outcome in test [4], in test [6] and in test [7] was inactive. For the same molecule, the result in test [5] was Active. The 50% growth inhibitory concentration (GI50) in test [1] was greater than 100 µM; in test [2], 77 µM; in test [3], greater than 100 µM.
`CC(=O)O[C@H]1[C@H](C)C[C@]2(O)C(=O)/C(C)=C/CC(C)(C)[C@H](OC(C)=O)C[C@@H](OC(=O)c3ccccc3)/C(C)=C/[C@@H]12` [PUBESCENE D]: the GI50 in test [1] was found to be 37.5 µM; in test [2], 37.5 µM; in test [3], 90.1 µM.
In the case of `COc1cccc2c1C(=O)c1c(O)c3c(c(O)c1C2=O)C[C@@](O)(C(=O)CO)C[C@@H]3O[C@H]1C[C@H](N)[C@H](O)[C@H](C)O1` [DOXORUBICIN], the values for the GI50 in test [1], in test [2] and in test [3] were 0.094 µM, 42.8 µM and 0.093 µM, respectively.
Regarding `CC1=C2C=C3CC[C@@H]4C(C)(C)[C@H](O)CC[C@@]4(C)[C@@H]3C[C@H]2OC1=O` [HELIOSCOPINOLIDE A], the result in test [4], in test [6] and in test [7] was inactive. The outcome in test [5] was Active. The GI50 is 72.8 µM in test [1], 67.5 µM in test [2] and greater than 100 µM in test [3].
